Literature values, collected in US12011508B2, “Methods and devices for reducing vascular smooth muscle cell proliferation” (Board of Supervisors of Louisiana State University and …, priority 2018, dated 2024).

O=c1c(O)c(-c2ccc(O)c(O)c2)oc2cc(O)cc(O)c12 [QUER, 2-(3,4-dihydroxyphenyl)-3,5,7-trihydroxy-4H-1-benzopyran-4-one]
water solubility: practically insoluble in water
